From patent publication US9828375B2, “4-position substituted pyrazolopyrimidine derivative, and use thereof in drug preparation” (Guangxi Wuzhou Pharmaceuticals (Group) Co., Ltd., priority 2012, dated 2017)
pIC50: −log10 of the molar value.

Assays:
Format in all cases: biochemical
[1] = target: SRC (Homo sapiens, UniProt P12931); test: Kinase inhibition activity test, isotope labeling: SRC; conditions: ATP 45 μM; read-out: SRC IC50 value (inhibitory activity value)
Method: (§1) The purpose of this experiment was to test the inhibitory activity of the compound of the invention for in vitro kinase with the isotope labeling method (the γ phosphate group on ATP was labeled). In this experiment, the in vitro activity inhibition of such kinases as FLT3, VEGFR2, FLT1, FLT4, RET, c-RAF, B-RAF, c-KIT, PDGFα, PDGFβ, FGFR2, FGFR1, EphA2, EphB2, SRC, ABL, ALK and Met was tested respectively. Staurosporine was reference molecule (or referred to as positive control). The kinase inhibition activity of the test compound was expressed by half-inhibitory concentration (IC50) or the kinase activity inhibition rate of the test compound at a concentration of 10 μM. The IC50 value could be obtained by calculating the kinase activity inhibition rate of the test compound at different concentrations.
(§2) 20 mM 3-(N-morpholinyl)propanesulfonic acid (MOPS); 1 mM ethylenediaminetetraacetic acid (EDTA), 0.01% Brij 35 (Brij-35), 5% glycerol, 0.1% mercaptoethanol, 1 mg/mL bovine serum albumin (BSA), 10 mM manganous dichloride solution (MnCl2), 0.1 mg/mL glutamic acid/tyrosine (4:1) polypeptide (poly(Glu, Tyr)4:1), 50 μM EAIYAAPFAKKK (substrate of FLT3), 0.33 mg/mL myelin basic protein (substrate of VEGFR2), 250 μM KKKSPGEYVNIEFG (substrate of FLT1(h)), 500 μM GGEEEEYFELVKKKK (substrate of FLT4(h)), 250 μM KKKSPGEYVNIEFG (substrate of RET), 0.66 mg/mL myelin basic protein (substrate of C-RAF), 250 μM GGMEDIYFEFMGGKKK (substrate of c-Kit), 250 μM GGMEDIYFEFMGGKKK (substrate of PDGFα), 250 μM KKKSPGEYVNIEFG (substrate of FGFR1), […] GGEEEEYFELVKKKK (substrate of SRC), 50 μM EAIYAAPFAKKK (substrate of ABL), 250 μM KKKSPGEYVNIEFG (substrate of ALK), 250 μM KKKSPGEYVNIEFG (substrate of Met(h)), 10 mM magnesium acetate and γ-^33 P-ATP solution, stop buffer (3% phosphate buffer), washing buffer (75 mM phosphate solution), methanol, Filtermat A membrane, FLT3, VEGFR2, FLT3, VEGFR2, FLT1, FLT4, RET, c-RAF, B-RAF, c-KIT, PDGFRα, PDGFRβ, FGFR2, FGFR1, EphA2, EphB2, SRC, ABL, ALK, Met and other kinases, and the test compounds.
(§3) Buffers (8 mM MOPS with pH value of 7.0, 0.2 mM EDTA and 10 mM MnCl2), (5-10 mU) kinases to be tested (FLT3, VEGFR2, FLT1, FLT4, RET, c-RAF, B-RAF, c-KIT, PDGFRα, PDGFRβ, FGFR2, FGFR1, EphA2, EphB2, SRC, ABL, ALK and Met), substrates of kinases to be tested (refer to experimental materials), 10 mM magnesium acetate and γ-^33 P-ATP solution, and test compounds at different concentrations were added to a reaction tube orderly. […] Reaction was terminated with 5 μL 3% phosphate buffer finally, and 10 μL reaction solution was titrated to the Filtermat A membrane; solution was washed for 3 times with 75 mM phosphate solution with each time lasting 5 minutes, and then washed once with methanol. […]

[2] = target: FLT1 (Homo sapiens, UniProt P17948); test: Kinase inhibition activity test, isotope labeling: FLT1; conditions: ATP 200 μM; read-out: FLT1 IC50 value (inhibitory activity value)
Chain of FLT1 (P17948 27-1338): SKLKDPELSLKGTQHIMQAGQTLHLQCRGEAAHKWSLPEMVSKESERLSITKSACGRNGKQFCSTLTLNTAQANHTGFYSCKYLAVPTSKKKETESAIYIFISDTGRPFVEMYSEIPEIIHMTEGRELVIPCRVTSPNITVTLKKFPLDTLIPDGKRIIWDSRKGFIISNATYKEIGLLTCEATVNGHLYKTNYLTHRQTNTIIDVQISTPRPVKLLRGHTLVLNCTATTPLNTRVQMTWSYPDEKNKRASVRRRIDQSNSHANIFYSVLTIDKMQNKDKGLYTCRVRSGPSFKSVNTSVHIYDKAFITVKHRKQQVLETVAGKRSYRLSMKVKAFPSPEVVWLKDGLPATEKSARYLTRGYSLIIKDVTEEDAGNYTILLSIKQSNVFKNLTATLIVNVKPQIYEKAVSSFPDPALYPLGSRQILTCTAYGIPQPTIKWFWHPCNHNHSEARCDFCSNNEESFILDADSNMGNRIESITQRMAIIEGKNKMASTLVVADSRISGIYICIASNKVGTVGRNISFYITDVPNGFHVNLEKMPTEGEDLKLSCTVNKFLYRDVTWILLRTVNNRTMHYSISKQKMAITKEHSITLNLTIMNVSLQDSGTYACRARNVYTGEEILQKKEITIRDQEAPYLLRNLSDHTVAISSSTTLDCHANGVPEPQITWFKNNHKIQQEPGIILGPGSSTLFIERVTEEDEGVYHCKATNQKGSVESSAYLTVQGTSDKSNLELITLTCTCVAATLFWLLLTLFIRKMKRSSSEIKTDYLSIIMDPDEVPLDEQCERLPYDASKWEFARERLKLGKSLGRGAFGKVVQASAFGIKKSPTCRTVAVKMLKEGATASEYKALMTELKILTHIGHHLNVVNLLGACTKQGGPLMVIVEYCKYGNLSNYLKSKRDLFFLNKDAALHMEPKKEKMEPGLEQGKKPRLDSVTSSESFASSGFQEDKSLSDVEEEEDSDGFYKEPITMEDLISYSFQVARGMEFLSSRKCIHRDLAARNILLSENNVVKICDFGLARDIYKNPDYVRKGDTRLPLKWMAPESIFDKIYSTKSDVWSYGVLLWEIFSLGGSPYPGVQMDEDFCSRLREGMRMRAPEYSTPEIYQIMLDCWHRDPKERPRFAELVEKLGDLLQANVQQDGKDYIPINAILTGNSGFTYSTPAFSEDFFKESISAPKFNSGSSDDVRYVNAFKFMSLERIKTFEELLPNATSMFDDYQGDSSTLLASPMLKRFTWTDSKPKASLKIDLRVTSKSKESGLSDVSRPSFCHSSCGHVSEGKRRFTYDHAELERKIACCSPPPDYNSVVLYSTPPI
Method: as §1, §2, §3

[3] = target: EphA2 (Homo sapiens, UniProt P29317); test: Kinase inhibition activity test, isotope labeling: EphA2; conditions: ATP 155 μM; read-out: EphA2 IC50 value (inhibitory activity value)
Chain of EphA2 (P29317 24-976): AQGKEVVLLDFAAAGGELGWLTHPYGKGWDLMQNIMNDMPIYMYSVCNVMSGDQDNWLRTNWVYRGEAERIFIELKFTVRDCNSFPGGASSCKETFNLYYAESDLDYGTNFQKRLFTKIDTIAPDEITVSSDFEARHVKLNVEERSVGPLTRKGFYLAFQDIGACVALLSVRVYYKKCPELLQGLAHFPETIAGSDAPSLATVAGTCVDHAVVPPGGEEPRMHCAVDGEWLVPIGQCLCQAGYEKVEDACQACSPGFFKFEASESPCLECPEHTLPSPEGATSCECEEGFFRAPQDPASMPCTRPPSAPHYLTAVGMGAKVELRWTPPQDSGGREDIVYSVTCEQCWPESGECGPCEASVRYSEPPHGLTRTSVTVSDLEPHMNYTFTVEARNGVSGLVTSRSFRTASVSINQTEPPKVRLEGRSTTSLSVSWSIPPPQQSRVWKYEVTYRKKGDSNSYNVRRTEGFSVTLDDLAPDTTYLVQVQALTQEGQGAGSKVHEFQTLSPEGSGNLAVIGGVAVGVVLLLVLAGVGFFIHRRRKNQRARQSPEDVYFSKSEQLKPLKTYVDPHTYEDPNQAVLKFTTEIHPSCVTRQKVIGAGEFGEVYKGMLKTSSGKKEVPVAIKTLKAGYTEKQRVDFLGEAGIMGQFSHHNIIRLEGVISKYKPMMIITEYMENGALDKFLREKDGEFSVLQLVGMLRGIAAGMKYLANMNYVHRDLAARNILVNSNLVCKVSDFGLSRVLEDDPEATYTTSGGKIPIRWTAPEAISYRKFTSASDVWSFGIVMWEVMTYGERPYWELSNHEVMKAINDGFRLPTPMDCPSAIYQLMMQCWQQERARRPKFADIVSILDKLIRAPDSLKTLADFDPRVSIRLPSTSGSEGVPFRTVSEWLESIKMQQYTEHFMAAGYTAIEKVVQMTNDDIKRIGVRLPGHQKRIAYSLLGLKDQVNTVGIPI
Method: as §1, §2, §3

[4] = target: T1, EphB2 (Homo sapiens, UniProt P29323); test: Kinase inhibition activity test, isotope labeling: EphB2; conditions: ATP 10 μM; read-out: EphB2 IC50 value (inhibitory activity value)
T1 sequence (P29323 19-1055): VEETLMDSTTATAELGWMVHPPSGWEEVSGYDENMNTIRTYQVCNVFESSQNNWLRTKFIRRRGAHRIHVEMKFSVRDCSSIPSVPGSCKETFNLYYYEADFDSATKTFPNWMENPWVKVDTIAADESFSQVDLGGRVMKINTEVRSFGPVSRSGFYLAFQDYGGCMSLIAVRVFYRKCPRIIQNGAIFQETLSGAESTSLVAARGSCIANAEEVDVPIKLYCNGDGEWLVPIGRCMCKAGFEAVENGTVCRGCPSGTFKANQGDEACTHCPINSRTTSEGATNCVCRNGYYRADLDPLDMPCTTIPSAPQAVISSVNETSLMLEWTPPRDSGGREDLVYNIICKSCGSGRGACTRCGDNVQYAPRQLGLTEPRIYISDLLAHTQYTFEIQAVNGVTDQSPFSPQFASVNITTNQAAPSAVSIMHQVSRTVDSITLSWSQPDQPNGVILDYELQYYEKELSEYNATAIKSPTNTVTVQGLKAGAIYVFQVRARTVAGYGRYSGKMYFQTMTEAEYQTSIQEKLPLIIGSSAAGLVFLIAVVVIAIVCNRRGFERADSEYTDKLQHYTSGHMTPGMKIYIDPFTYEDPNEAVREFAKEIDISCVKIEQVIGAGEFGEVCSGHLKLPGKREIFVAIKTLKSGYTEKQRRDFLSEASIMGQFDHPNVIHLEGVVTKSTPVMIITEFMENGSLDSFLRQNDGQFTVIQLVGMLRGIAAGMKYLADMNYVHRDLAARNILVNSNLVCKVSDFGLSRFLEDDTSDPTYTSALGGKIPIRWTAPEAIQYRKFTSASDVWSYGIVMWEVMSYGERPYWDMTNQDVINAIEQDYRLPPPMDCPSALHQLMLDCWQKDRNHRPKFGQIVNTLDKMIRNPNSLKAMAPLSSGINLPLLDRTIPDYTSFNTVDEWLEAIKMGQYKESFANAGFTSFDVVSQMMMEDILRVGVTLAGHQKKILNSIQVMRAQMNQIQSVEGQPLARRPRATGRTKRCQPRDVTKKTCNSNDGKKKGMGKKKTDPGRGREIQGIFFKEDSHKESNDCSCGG
Method: as §1, §2, §3

[5] = target: RET (Homo sapiens, UniProt P07949); test: Kinase inhibition activity test, isotope labeling: RET; conditions: ATP 70 μM; read-out: RET IC50 value (inhibitory activity value)
Chain of RET (P07949 29-1114): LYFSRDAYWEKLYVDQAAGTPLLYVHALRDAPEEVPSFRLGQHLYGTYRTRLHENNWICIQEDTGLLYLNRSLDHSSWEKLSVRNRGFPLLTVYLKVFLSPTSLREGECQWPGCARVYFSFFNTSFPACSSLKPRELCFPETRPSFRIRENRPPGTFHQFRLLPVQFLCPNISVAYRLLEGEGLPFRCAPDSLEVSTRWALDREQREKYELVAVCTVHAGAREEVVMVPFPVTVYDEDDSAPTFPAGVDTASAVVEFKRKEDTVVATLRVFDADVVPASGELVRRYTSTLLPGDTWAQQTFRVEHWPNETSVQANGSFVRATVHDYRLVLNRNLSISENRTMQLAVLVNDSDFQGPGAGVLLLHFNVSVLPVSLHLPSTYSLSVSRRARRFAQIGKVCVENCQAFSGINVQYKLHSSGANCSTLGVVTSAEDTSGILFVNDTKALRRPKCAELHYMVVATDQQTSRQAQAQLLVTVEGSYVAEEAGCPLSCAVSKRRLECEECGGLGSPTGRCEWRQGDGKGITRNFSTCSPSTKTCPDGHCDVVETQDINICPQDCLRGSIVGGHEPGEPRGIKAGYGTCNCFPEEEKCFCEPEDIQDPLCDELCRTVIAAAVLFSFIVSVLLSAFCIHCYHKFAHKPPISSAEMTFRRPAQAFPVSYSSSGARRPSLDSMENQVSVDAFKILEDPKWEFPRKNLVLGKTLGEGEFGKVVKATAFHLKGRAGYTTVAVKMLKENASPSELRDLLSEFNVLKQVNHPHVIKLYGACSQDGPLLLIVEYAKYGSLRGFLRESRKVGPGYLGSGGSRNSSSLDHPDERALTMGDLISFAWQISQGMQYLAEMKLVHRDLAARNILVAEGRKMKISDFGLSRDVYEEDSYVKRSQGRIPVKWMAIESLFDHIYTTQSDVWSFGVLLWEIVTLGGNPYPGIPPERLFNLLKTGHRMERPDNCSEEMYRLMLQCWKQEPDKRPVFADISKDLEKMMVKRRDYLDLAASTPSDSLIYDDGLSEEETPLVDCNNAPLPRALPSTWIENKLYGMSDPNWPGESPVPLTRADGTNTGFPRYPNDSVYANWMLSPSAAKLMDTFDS
Method: as §1, §2, §3

[6] = target: c-RAF (Homo sapiens, UniProt P04049); test: Kinase inhibition activity test, isotope labeling: c-RAF; conditions: ATP 45 μM; read-out: c-RAF IC50 value (inhibitory activity value)
Chain of c-RAF (P04049 whole entry): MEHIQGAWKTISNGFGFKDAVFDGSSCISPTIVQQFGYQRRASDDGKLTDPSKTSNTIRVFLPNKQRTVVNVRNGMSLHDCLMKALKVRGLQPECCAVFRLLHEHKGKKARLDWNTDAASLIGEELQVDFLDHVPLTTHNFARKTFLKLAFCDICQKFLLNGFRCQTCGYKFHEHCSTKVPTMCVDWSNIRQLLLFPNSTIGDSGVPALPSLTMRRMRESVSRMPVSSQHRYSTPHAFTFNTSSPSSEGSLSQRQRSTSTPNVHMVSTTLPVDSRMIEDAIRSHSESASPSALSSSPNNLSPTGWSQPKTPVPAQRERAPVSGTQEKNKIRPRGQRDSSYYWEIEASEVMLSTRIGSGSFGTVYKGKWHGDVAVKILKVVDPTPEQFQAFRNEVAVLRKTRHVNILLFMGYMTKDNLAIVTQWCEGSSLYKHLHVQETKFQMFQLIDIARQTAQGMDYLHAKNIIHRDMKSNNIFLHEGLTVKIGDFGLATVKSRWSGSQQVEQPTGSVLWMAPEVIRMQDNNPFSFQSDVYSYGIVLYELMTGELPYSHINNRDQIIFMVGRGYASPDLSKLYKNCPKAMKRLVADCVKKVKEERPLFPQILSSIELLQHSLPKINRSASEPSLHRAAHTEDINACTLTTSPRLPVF
Method: as §1, §2, §3

Chain of SRC (P12931 whole entry): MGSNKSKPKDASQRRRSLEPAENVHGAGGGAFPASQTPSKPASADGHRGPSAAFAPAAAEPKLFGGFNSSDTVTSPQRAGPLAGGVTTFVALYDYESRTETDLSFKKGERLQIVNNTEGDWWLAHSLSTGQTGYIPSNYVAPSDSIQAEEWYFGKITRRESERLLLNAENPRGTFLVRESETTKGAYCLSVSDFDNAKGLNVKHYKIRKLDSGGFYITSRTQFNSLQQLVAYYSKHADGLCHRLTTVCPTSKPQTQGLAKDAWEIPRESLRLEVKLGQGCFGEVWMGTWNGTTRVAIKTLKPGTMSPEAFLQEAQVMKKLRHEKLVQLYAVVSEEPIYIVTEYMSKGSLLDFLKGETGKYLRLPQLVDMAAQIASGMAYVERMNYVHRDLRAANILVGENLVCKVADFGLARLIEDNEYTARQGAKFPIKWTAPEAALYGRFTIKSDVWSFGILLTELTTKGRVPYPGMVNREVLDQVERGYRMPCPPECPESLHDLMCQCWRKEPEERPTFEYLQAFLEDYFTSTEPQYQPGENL

| SMILES | pIC50 [1] | pIC50 [2] | pIC50 [3] | pIC50 [4] | pIC50 [5] | pIC50 [6] |
| --- | --- | --- | --- | --- | --- | --- |
| O=C(Nc1ccc(Oc2ncnc3[nH]ncc23)cc1)Nc1ccc(Cl)c(C(F)(F)F)c1 [4a-2] | > 5.00 | > 5.00 | > 5.00 | > 5.00 | > 5.00 | 7.14 |
| O=C(Nc1ccc(Oc2ncnc3[nH]ncc23)cc1)Nc1cccc(C(F)(F)F)c1 [4a-6] | 5.52 | 8.30 | 7.25 | 6.86 | 8.40 | 7.09 |
| CC(C)(C)c1cc(NC(=O)Nc2ccc(Oc3ncnc4[nH]ncc34)cc2)on1 [4a-25] | > 5.00 | > 5.00 | > 5.00 | > 5.00 | > 5.00 | 7.28 |
| CC(C)(C)c1cc(NC(=O)Nc2ccc(Oc3ncnc4[nH]ncc34)c(F)c2)no1 [4a-31] | > 5.00 | > 5.00 | > 5.00 | > 5.00 | > 5.00 | 7.34 |
